{
  "source": "patent US20180064662A1",
  "about": "(THE GENERAL HOSPITAL CORPORATION, priority 2015, published 2018)",
  "key": {"[1]": {"test_system": "human PSC viability", "test": "MTT viability assay on PSCs", "type": "cell-based"}, "[2]": {"test_system": "PAN02 tumors", "description": "All experimental use of animals was approved by the institutional animal care and use committee at Massachusetts General Hospital (MGH). All animal procedures abided by Public Health Service Policy on Humane Care of Laboratory Animals guidelines. All mice were bred and maintained MGH animal facility. Wild-type (WT) C57BL/6 mice were originally obtained from the Jackson Laboratory (The Jackson Laboratory, Bar Harbor, Me.) but were bred and maintained in a defined-flora colony. VEGFR1 tyrosine kinase-knockout mice (Flt1^TK−/−) of mixed C57BL/6 and SV129 strain background were originally developed at the University of Tokyo, Japan (Hiratsuka et al. Proc Natl Acad Sci USA (1998)95(16): 9349-54), and subsequently backcrossed to 99.9% C57BL/6 strain background (N10 equivalent) at Massachusetts General Hospital. Strain background was verified by the Jackson Laboratory's Speed Congenic Development Service. Genotyping was performed using polymerase chain reaction (PCR) analysis, as previously described (Hiratsuka et al.). Age-matched animals were used for all experiments. Mice were maintained on a 12-h light-dark cycle in a temperature-controlled barrier facility, with ad libitum access to food and acidified water, unless otherwise specified.\nMice (7-week old) were given either 10% or a 60% fat diet (D12450J and D12492, Research Diets, New Brunswick, N.J.) for 10 weeks, as described in Surwit et al. Metabolism (1995) 44(5):645-51. Body weight was monitored weekly and mice on a high-fat diet were defined as obese if their body weight was greater than 3 SD above the weight of the low fat diet group. At the end of the experiment, animals were weighed and euthanized, and the inguinal, perigonadal, and perineal fat pads were excised and weighed.\nGlucose (GTT) and insulin tolerance tests (ITT) were performed after 8 and 9 weeks on the diet, respectively. Male mice were fasted for 16 hours (5pm-9am) for GTT, or 3 hours (9am-12pm) for ITT. Glucose (0.75 mg/g body weight) or insulin (1U/kg body weight) was administered by intraperitoneal (i.p.) injection, and tail blood was sampled at 0, 15, 30, 60, 90, and 120 minutes after administration of glucose/insulin. Blood glucose levels were measured using a Precision Xtra glucose meter (Abbott Diagnostics, Bedford, MA, USA). Glucose tolerance was evaluated calculating the area under the curve (AUC) for each mouse according to the following equation: […]\nC57BL/6 VEGFR1(TK)−/− or WT obese and lean mice (after 10 weeks of diets) were used for tumor implantation studies. To induce pancreatic tumors, small (˜1 mm in diameter) chunks from a PAN02 pancreatic tumor source were grafted in the pancreata of obese and lean male mice. To induce breast tumors, 1×10^6 E0771 breast cancer cells were implanted in the mammary fat pad of lean and obese female mice. About 3 weeks after implantation, tumors were removed and tissue was assessed for immune cell infiltration, gene and protein expression of inflammatory, metabolic and major signaling pathway markers. Plasma was also collected and assessed for insulin, IGF-1, glucose and inflammatory markers (see below). Metastatic burden was assessed by counting lung metastasis in the E0771 breast cancer model, and evaluating abdominal wall invasion as well as mesentery metastasis in the PAN02 pancreatic cancer model. For abdominal wall invasion, animals were scored from 0 to 3 based on the extent of invasion: 0=no invasion, 1=less than 3 metastasis, 2=less than 6 metastasis, 3=more than 6 metastasis.\nImmediately following excision, tumor tissue was snap frozen and stored in liquid nitrogen until used. Total RNA was extracted and relative gene expression was determined using RT2 Profiler PCR Arrays system (Qiagen) on a Stratagene Mx3000P QPCR System."}, "[3]": {"details": "VEGFR-1 inhibition and metformin combined"}},
  "data": [
    {"smiles": "CN(C)C(=N)N=C(N)N", "note": "[metformin, 3-(diaminomethylidene)-1,1-dimethylguanidine]", "values": [
      {"measurement": "doses at which metformin significantly reduces PSC viability", "setting": "[1]; 48 h, MTT", "result": "> 7.5", "unit": "mM"},
      {"measurement": "viability of PSCs", "setting": "[1]; metformin 1 mM", "result": "does not substantially affect the viability"},
      {"measurement": "pericyte coverage in tumors", "setting": "[2]; [3]", "result": "increased pericyte coverage"},
      {"measurement": "vessel density in tumor and adipose tissue", "setting": "[2]; [3]", "result": "unaltered vessel density"},
      {"measurement": "tumor cell apoptosis", "setting": "[2]; combination group", "result": "increased tumor cell apoptosis"},
      {"measurement": "tumor cell proliferation", "setting": "[2]; combination group", "result": "decreased proliferation"},
      {"measurement": "fraction of perfused vessels", "setting": "[2]; combination group compared to control or anti-VEGFR-1 alone", "result": "significantly higher"},
      {"measurement": "IR/IGF-1 signaling or AMPK/ACC activation", "setting": "[2]; obese Flt1TK-/- mice with metformin", "result": "no changes"},
      {"measurement": "plasma insulin", "setting": "[2]; obese Flt1TK-/- mice, 3 weeks after implantation of PAN02", "result": "prevented the increased insulin"},
      {"measurement": "PAN02 tumor weight", "setting": "[2]; obese mice, VEGFR-1 inhibition and metformin combined", "result": "at its lowest"},
      {"measurement": "expression of major gluconeogenic genes downregulated by VEGFR-1 inhibition", "setting": "[2]; obese tumors", "result": "restored expression of major gluconeogenic genes"}
    ]}
  ]
}
